# Reference: patent US9113629B2, “4-amino-6-(4-substituted-phenyl)-picolinates and 6-amino-2-(4-substituted-phenyl)-pyrimidine-4-carboxylates and their use as herbicides” (DOW AGROSCIENCES LLC, priority 2013, dated 2015)
# Like-named read-outs stand apart in the source and are kept apart here.
# Experiments:
# Assay in all cases: Post-emergent Test III, herbicidal activity in wheat and barley
# Format in all cases: in vivo
# [1] = test system: HORSS: barley, including spring and winter (Hordeum vulgare); conditions: for GR20 HORSS: probit analysis
# In short: (§1)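 GR20, GR50, GR80 and GR90 come from probit analysis of visual injury scores (0 = none, 100 = complete kill) taken 21 d after treatment. Foliar application was by track sprayer delivering 187 L/ha at five rates, from high down to 1/16×, onto greenhouse plants at the 2–3 leaf stage, with solvent-blank controls.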
# [2] = test system: KCHSC: kochia (Kochia scoparia); conditions: for pest or weed control at 35 g/ha / pest or weed control at 70 g/ha: Bassia scoparia, post-emergence, 504 h; for pest or weed control at 35 g/ha: 35 g ai/ha; for pest or weed control at 70 g/ha: 70 g ai/ha
# In short: as §1
# [3] = test system: MATSS: scented mayweed (Matricaria chamomilla), pineappleweed (Matricaria matricarioides); conditions: for pest or weed control at 35 g/ha / pest or weed control at 70 g/ha: Matricaria chamomilla, post-emergence, 504 h; for pest or weed control at 35 g/ha: 35 g ai/ha; for pest or weed control at 70 g/ha: 70 g ai/ha
# In short: as §1
# [4] = test system: SASKR: Russian thistle (Salsola iberica)
# In short: as §1
# [5] = test system: TRZSS: wheat, including spring and winter (Triticum aestivum); conditions: for GR20 TRZSS: probit analysis
# In short: as §1
# [6] = test system: VERPE: bird's-eye speedwell (veronica persica); conditions: 21 days after application
# In short: as §1
# [7] = test system: VIOSS: wild pansy (Viola tricolor), field violet (Viola arvensis)
# In short: as §1
# [8] = dose for 20 percent growth reduction (crop), 21 days after application
# [9] = 21 days after application, read-out: Visual Gorowth Reduction (%) 21 days After Application KCHSC
# [10] = probit analysis, dose for 50 percent growth reduction, 21 days after application
# [11] = probit analysis, dose for 80 percent growth reduction, 21 days after application
# [12] = 21 days after application, read-out: Visual Gorowth Reduction (%) 21 days After Application MATSS
# [13] = Post-emergent Test III, 35 g ai/ha
# [14] = Post-emergent Test III, 70 g ai/ha
# [15] = Post-emergent Test III, 21 days after application, dose for 20% growth reduction
# [16] = Post-emergent Test III, read-out: Visual Growth Reduction (%) 21 Days After Application, KCHSC
# [17] = Post-emergent Test III, 21 days after application, dose for 20% growth reduction, probit analysis
# [18] = Post-emergent Test III, 21 days after application, dose for 50% growth reduction, probit analysis
# [19] = Post-emergent Test III, 21 days after application, dose for 80% growth reduction, probit analysis
# [20] = Post-emergent Test III, read-out: Visual Growth Reduction (%) 21 Days After Application, MATSS
structure (smiles),measurement,setting,value
Nc1cc(-c2ccc(I)c(F)c2F)nc(C(=O)O)c1Cl [Compound 38],pest or weed control at 35 g/ha,"[1]; Hordeum vulgare, post-emergence, 504 h, 35 g ai/ha, 21 days after application, read-out: Visual Gorowth Reduction (%) 21 days After Application HORSS",85 to 94%
same,pest or weed control at 70 g/ha,"[1]; Hordeum vulgare, post-emergence, 504 h, 70 g ai/ha, 21 days after application, read-out: Visual Gorowth Reduction (%) 21 days After Application HORSS",85 to 94%
same,GR20 HORSS,[1]; [8],1 g ai/ha
same,pest or weed control at 35 g/ha,[2]; [9],85 to 94%
same,pest or weed control at 70 g/ha,[2]; [9],85 to 94%
same,GR50 KCHSC,[2]; [10],1 g ai/ha
same,GR80 KCHSC,[2]; [11],24 g ai/ha
same,pest or weed control at 35 g/ha,[3]; [12],60 to 74%
same,pest or weed control at 70 g/ha,[3]; [12],85 to 94%
same,GR50 MATSS,[3]; [10],21 g ai/ha
same,GR80 MATSS,[3]; [11],56 g ai/ha
same,pest or weed control at 35 g/ha,"[4]; Salsola tragus, post-emergence, 504 h, 35 g ai/ha, 21 days after application, read-out: Visual Gorowth Reduction (%) 21 days After Application SASKR",60 to 74%
same,pest or weed control at 70 g/ha,"[4]; Salsola tragus, post-emergence, 504 h, 70 g ai/ha, 21 days after application, read-out: Visual Gorowth Reduction (%) 21 days After Application SASKR",60 to 74%
same,GR50 SASKR,[4]; [10],17 g ai/ha
same,GR80 SASKR,[4]; [11],68 g ai/ha
same,pest or weed control at 35 g/ha,"[5]; Triticum aestivum, post-emergence, 504 h, 35 g ai/ha, 21 days after application, read-out: Visual Gorowth Reduction (%) 21 days After Application TRZSS",85 to 94%
same,pest or weed control at 70 g/ha,"[5]; Triticum aestivum, post-emergence, 504 h, 70 g ai/ha, 21 days after application, read-out: Visual Gorowth Reduction (%) 21 days After Application TRZSS",85 to 94%
same,GR20 TRZSS,[5]; [8],1 g ai/ha
same,pest or weed control at 35 g/ha,"[6]; Veronica persica, post-emergence, 504 h, 35 g ai/ha, read-out: Visual Gorowth Reduction (%) 21 days After Application VERPE",30 to 44%
same,pest or weed control at 70 g/ha,"[6]; Veronica persica, post-emergence, 504 h, 70 g ai/ha, read-out: Visual Gorowth Reduction (%) 21 days After Application VERPE",60 to 74%
same,GR50 VERPE,"[6]; probit analysis, dose for 50 percent growth reduction",42 g ai/ha
same,GR80 VERPE,"[6]; probit analysis, dose for 80 percent growth reduction",112 g ai/ha
same,pest or weed control at 35 g/ha,"[7]; Viola tricolor, post-emergence, 504 h, 35 g ai/ha, 21 days after application, read-out: Visual Gorowth Reduction (%) 21 days After Application VIOSS",95 to 100%
same,pest or weed control at 70 g/ha,"[7]; Viola tricolor, post-emergence, 504 h, 70 g ai/ha, 21 days after application, read-out: Visual Gorowth Reduction (%) 21 days After Application VIOSS",95 to 100%
same,GR50 VIOSS,[7]; [10],13 g ai/ha
same,GR80 VIOSS,[7]; [11],26 g ai/ha
COC(=O)c1nc(-c2ccc(C(F)(F)F)c(F)c2F)c(F)c(N)c1Cl [Compound 149],"Visual Growth Reduction (%) 21 Days After Application, HORSS",[1]; [13],D (60-74)
same,"Visual Growth Reduction (%) 21 Days After Application, HORSS",[1]; [14],C (75-84)
same,GR20 HORSS,[1]; [15],21 g ai/ha
same,pest or weed control at 35 g/ha,[2]; [16],30 to 44%
same,pest or weed control at 70 g/ha,[2]; [16],60 to 74%
same,"GR20, KCHSC",[2]; [17],18 g ai/ha
same,GR50 KCHSC,[2]; [18],56 g ai/ha
same,GR80 KCHSC,[2]; [19],>140 g ai/ha
same,pest or weed control at 35 g/ha,[3]; [20],45 to 59%
same,pest or weed control at 70 g/ha,[3]; [20],60 to 74%
same,"GR20, MATSS",[3]; [17],9 g ai/ha
same,GR50 MATSS,[3]; [18],38 g ai/ha
same,GR80 MATSS,[3]; [19],>140 g ai/ha
same,"Visual Growth Reduction (%) 21 Days After Application, SASKR",[4]; [13],D (60-74)
same,"Visual Growth Reduction (%) 21 Days After Application, SASKR",[4]; [14],D (60-74)
same,"GR20, SASKR",[4]; [17],6 g ai/ha
same,GR50 SASKR,[4]; [18],24 g ai/ha
same,GR80 SASKR,[4]; [19],100 g ai/ha
same,"Visual Growth Reduction (%) 21 Days After Application, TRZSS",[5]; [13],E (45-59)
same,"Visual Growth Reduction (%) 21 Days After Application, TRZSS",[5]; [14],C (75-84)
same,GR20 TRZSS,[5]; [15],20 g ai/ha
same,"Visual Growth Reduction (%) 21 Days After Application, VIOSS",[7]; [13],F (30-44)
same,"Visual Growth Reduction (%) 21 Days After Application, VIOSS",[7]; [14],D (60-74)
same,"GR20, VIOSS",[7]; [17],11 g ai/ha
same,GR50 VIOSS,[7]; [18],44 g ai/ha
same,GR80 VIOSS,[7]; [19],>140 g ai/ha
COC(=O)c1nc(-c2ccc(C(F)(F)F)c(F)c2)c(F)c(N)c1Cl [Compound 165],"Visual Growth Reduction (%) 21 Days After Application, HORSS",[1]; [13],C (75-84)
same,"Visual Growth Reduction (%) 21 Days After Application, HORSS",[1]; [14],B (85-94)
same,GR20 HORSS,[1]; [15],9 g ai/ha
same,pest or weed control at 35 g/ha,[2]; [16],85 to 94%
same,pest or weed control at 70 g/ha,[2]; [16],85 to 94%
same,GR50 KCHSC,[2]; [18],9 g ai/ha
same,GR80 KCHSC,[2]; [19],30 g ai/ha
same,pest or weed control at 35 g/ha,[3]; [20],0 to 29%
same,pest or weed control at 70 g/ha,[3]; [20],45 to 59%
same,GR50 MATSS,[3]; [18],81 g ai/ha
same,GR80 MATSS,[3]; [19],>140 g ai/ha
same,"Visual Growth Reduction (%) 21 Days After Application, SASKR",[4]; [13],C (75-84)
same,"Visual Growth Reduction (%) 21 Days After Application, SASKR",[4]; [14],B (85-94)
same,GR50 SASKR,[4]; [18],4 g ai/ha
same,GR80 SASKR,[4]; [19],46 g ai/ha
same,"Visual Growth Reduction (%) 21 Days After Application, TRZSS",[5]; [13],D (60-74)
same,"Visual Growth Reduction (%) 21 Days After Application, TRZSS",[5]; [14],C (75-84)
same,GR20 TRZSS,[5]; [15],8 g ai/ha
same,"Visual Growth Reduction (%) 21 Days After Application, VIOSS",[7]; [13],F (30-44)
same,"Visual Growth Reduction (%) 21 Days After Application, VIOSS",[7]; [14],D (60-74)
same,GR50 VIOSS,[7]; [18],55 g ai/ha
same,GR80 VIOSS,[7]; [19],>140 g ai/ha
